Tests used:
myeloperoxidase (MPO) [1] = molecular target: T1, myeloperoxidase (MPO) (Homo sapiens, UniProt P05164); assay: MPO peroxidation assay (Amplex Red assay); assay type: biochemical; details: MPO peroxidation, potency range class; read-out: Amplex Red IC50
T1 sequence (P05164 49-745): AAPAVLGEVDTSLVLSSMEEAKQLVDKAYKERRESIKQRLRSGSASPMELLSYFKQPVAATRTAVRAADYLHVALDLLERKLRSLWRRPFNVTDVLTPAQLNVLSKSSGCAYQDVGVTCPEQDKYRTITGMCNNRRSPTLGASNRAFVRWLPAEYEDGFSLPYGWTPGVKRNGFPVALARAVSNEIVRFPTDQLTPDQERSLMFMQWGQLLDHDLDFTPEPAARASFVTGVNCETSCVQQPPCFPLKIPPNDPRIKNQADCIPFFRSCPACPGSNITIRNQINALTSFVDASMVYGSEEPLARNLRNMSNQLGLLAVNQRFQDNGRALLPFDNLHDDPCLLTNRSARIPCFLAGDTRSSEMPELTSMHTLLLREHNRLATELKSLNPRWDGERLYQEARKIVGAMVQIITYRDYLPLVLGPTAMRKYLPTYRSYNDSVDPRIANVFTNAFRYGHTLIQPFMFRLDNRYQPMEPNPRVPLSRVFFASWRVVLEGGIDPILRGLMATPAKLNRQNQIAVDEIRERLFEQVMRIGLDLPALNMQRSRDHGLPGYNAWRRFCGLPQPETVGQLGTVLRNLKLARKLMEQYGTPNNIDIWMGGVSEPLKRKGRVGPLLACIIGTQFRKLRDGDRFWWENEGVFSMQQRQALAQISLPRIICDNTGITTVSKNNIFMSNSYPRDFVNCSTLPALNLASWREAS
In short: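 Peroxidase turnover of Amplex Red to fluorescent resorufin (Ex 535/Em 590 nm) was followed for 15 min in 100 mM KPi, pH 7.4, after 10 min room-temperature preincubation of compound with 200 pM enzyme plus 40 nM H2O2. The substrate mix contained 200 μM Amplex Red and 10 mM H2O2. IC50s came from linear-phase rates (180–540 s) fitted with a Hill equation.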

myeloperoxidase (MPO) [2] = molecular target: T1, myeloperoxidase (MPO); assay: MPO chlorination assay (APF assay); assay type: biochemical; details: MPO chlorination, potency range class; read-out: APF IC50
Experimental: [formula] where A=minimal Y value (activity level of inhibited sample), B=maximal Y value (activity level of uninhibited sample), C=Log IC50, D=Hill Slope, x=concentration of inhibitor. MPO Chlorination Assay (APF Assay)
MPO chlorination activity was measured in 100 mM KPi (pH 7.4) by utilizing the non-fluorescent reagent Aminophenyl fluorescein (APF, Invitrogen catalog #A36003). APF is cleaved by (—OCl) to yield the fluorescent compound fluorescein. Reactions were carried out in 50 μL total volume by adding a 25 μL mixture of 200 pM myeloperoxidase and 120 mM NaCl to 100 nL inhibitor in 100% DMSO in a 384 well, non-binding surface clear bottom plate (CORNING® #3655). Enzyme, inhibitor, and chloride were preincubated for ten minutes at room temperature.
After the ten minute preincubation, 25 μL of an APF mixture containing […], 120 mM NaCl and 10 μM H2O2 was added to the plate using the internal dispensing system of a Hammatsu FDSS 6000. Kinetic determinations were carried out immediately on the FDSS 6000 (3 minute kinetic read, 1 read every second, ex: 485 nm, em: 535 nm). IC50 values for inhibitors were calculated by taking the slope of the linear portion of the kinetic measurement (20 seconds to ˜80-120 secs).
IC50 values were calculated by determining the slope of the linear portion of the kinetic trace ([…]), and using that calculated slope to determine % inhibition occurring at each concentration of inhibitor using the following equation:
[formula] where A=minimal Y value (activity level of inhibited sample), B=maximal Y value (activity level of uninhibited sample), C=Log IC50, D=Hill Slope, x=concentration of inhibitor. EPX Bromination Assay

| Compound | IC50 (myeloperoxidase (MPO) [1]) [nM] | IC50 (myeloperoxidase (MPO) [2]) [nM] |
| --- | --- | --- |
| Nc1cc(OCc2cc(Cl)ccc2OC(F)(F)F)c2nn[nH]c2n1 [Example 36, 7-(5-Chloro-2-(trifluoromethoxy)benzyloxy)-3H-[1,2,3]triazolo[4,5-b]pyridin-5-amine] | 1 to 100 | 1 to 100 |
| Nc1cc(OCc2cc(Cl)ccc2OC2CCCC2)c2nn[nH]c2n1 [Example 43, 7-(5-Chloro-2-(cyclopentyloxy)benzyloxy)-3H-[1,2,3]triazolo[4,5-b]pyridin-5-amine] | 1 to 100 | 101 to 999 |
| N#Cc1ccc(-c2ccc(COc3cc(N)nc4[nH]nnc34)c(C#N)c2)cn1 [Example 325, 5-(4-(((5-amino-3H-[1,2,3]triazolo[4,5-b]pyridin-7-yl)oxy)methyl)-3-cyanophenyl) picolinonitrile] | 1 to 100 |  |
| N#Cc1cc(-c2ccc(N3CCCC3)nc2)ccc1COc1cc(N)nc2[nH]nnc12 [Example 326, 2-(((5-amino-3H-[1,2,3]triazolo[4,5-b]pyridin-7-yl)oxy)methyl)-5-(6-(pyrrolidin-1-yl)pyridin-3-yl)benzonitrile] | 1 to 100 |  |
| N#Cc1cc(-c2ccc(N3CCNCC3)nc2)ccc1COc1cc(N)nc2[nH]nnc12 [Example 327, 2-(((5-amino-3H-[1,2,3]triazolo[4,5-b]pyridin-7-yl)oxy)methyl)-5-(6-(piperazin-1-yl)pyridin-3-yl)benzonitrile] | 1 to 100 |  |
| N#Cc1cc(-c2ccc(CN)nc2)ccc1COc1cc(N)nc2[nH]nnc12 [Example 328, 2-(((5-amino-3H-[1,2,3]triazolo[4,5-b]pyridin-7-yl)oxy)methyl)-5-(6-(aminomethyl)pyridin-3-yl)benzonitrile] | 1 to 100 |  |
| N#Cc1cc(-c2cnc(N3CCNCC3)nc2)ccc1COc1cc(N)nc2[nH]nnc12 [Example 329, 2-(((5-amino-3H-[1,2,3]triazolo[4,5-b]pyridin-7-yl)oxy)methyl)-5-(2-(piperazin-1-yl)pyrimidin-5-yl)benzonitrile] | 1 to 100 |  |
| N#Cc1cc(-c2ccc(F)nc2)ccc1COc1cc(N)nc2[nH]nnc12 [Example 330, 2-(((5-amino-3H-[1,2,3]triazolo[4,5-b]pyridin-7-yl)oxy)methyl)-5-(6-fluoropyridin-3-yl)benzonitrile] | 1 to 100 |  |
| COc1ccccc1CNC(=O)c1ccc(COc2cc(N)nc3[nH]nnc23)c(Cl)c1 [Example 331, 4-((5-amino-3H-[1,2,3]triazolo[4,5-b]pyridin-7-yloxy)methyl)-3-chloro-N-(2-methoxybenzyl) benzamide] | 1 to 100 |  |
| Nc1cc(OCc2c(F)cc(-c3cccnc3)cc2F)c2nn[nH]c2n1 [Example 332, 7-((2,6-difluoro-4-(pyridin-3-yl)benzyl)oxy)-3H-[1,2,3] triazolo[4,5-b]pyridin-5-amine] | 1 to 100 |  |
| COc1ccc(-c2cc(F)c(COc3cc(N)nc4[nH]nnc34)c(F)c2)cn1 [Example 333, 7-((2,6-difluoro-4-(6-methoxypyridin-3-yl)benzyl)oxy)-3H-[1,2,3]triazolo[4,5-b] pyridin-5-amine] | 1 to 100 |  |
| Nc1cc(OCc2c(F)cc(-c3ccc(N4CCOCC4)nc3)cc2F)c2nn[nH]c2n1 [Example 335, 7-((2,6-difluoro-4-(6-morpholinopyridin-3-yl)benzyl)oxy)-3H-[1,2,3]triazolo[4,5-b] pyridin-5-amine] | 1 to 100 |  |
| Nc1ccc(-c2cc(F)c(COc3cc(N)nc4[nH]nnc34)c(F)c2)cn1 [Example 337, 7-((4-(6-aminopyridin-3-yl)-2,6-difluorobenzyl)oxy)-3H-[1,2,3]triazolo[4,5-b] pyridin-5-amine] | 1 to 100 |  |
| N#Cc1ccc(-c2cc(F)c(COc3cc(N)nc4[nH]nnc34)c(F)c2)cn1 [Example 338, 5-(4-(((5-amino-3H-[1,2,3]triazolo[4,5-b]pyridin-7-yl)oxy)methyl)-3,5-difluorophenyl) picolinonitrile] | 1 to 100 |  |
| Nc1cc(OCc2c(F)cc(-c3ccc(OCc4ccccc4)nc3)cc2F)c2nn[nH]c2n1 [Example 339, 7-((4-(6-(benzyloxy)pyridin-3-yl)-2,6-difluorobenzyl)oxy)-3H-[1,2,3]triazolo[4,5-b] pyridin-5-amine] | 101 to 999 |  |
| Nc1cc(OCc2c(F)cc(-c3ccc(F)nc3F)cc2F)c2nn[nH]c2n1 [Example 340, 7-((4-(2,6-difluoropyridin-3-yl)-2,6-difluorobenzyl)oxy)-3H-[1,2,3]triazolo[4,5-b]pyridin-5-amine] | 101 to 999 |  |
| NC(=O)c1ccc(-c2cc(F)c(COc3cc(N)nc4[nH]nnc34)c(F)c2)cn1 [Example 341, 5-(4-(((5-amino-3H-[1,2,3]triazolo[4,5-b]pyridin-7-yl)oxy)methyl)-3,5-difluorophenyl) picolinamide] | 1 to 100 |  |
| Nc1cc(OCc2c(F)ccc(-c3ccc(N4CCOCC4)nc3)c2Cl)c2nn[nH]c2n1 [Example 342, 7-((2-chloro-6-fluoro-3-(6-morpholinopyridin-3-yl)benzyl)oxy)-3H-[1,2,3]triazolo[4,5-b] pyridin-5-amine] | 1 to 100 |  |
| Nc1cncc(-c2ccc(F)c(COc3cc(N)nc4[nH]nnc34)c2Cl)c1 [Example 343, 7-((3-(5-aminopyridin-3-yl)-2-chloro-6-fluorobenzyl)oxy)-3H-[1,2,3]triazolo[4,5-b] pyridin-5-amine] | 1 to 100 |  |
| Nc1cc(OCc2c(F)ccc(-c3ccc(N4CCNCC4)nc3)c2Cl)c2nn[nH]c2n1 [Example 344, 7-((2-chloro-6-fluoro-3-(6-(piperazin-1-yl)pyridin-3-yl)benzyl)oxy)-3H-[1,2,3]triazolo [4,5-b]pyridin-5-amine] | 1 to 100 |  |
| CN1CCN(c2ccc(-c3ccc(F)c(COc4cc(N)nc5[nH]nnc45)c3)cn2)CC1 [Example 346, 7-((2-fluoro-5-(6-(4-methylpiperazin-1-yl)pyridin-3-yl)benzyl)oxy)-3H-[1,2,3]triazolo [4,5-b]pyridin-5-amine] | 101 to 999 |  |
| Nc1cc(OCc2cc(-c3ccc(CO)nc3)ccc2F)c2nn[nH]c2n1 [Example 347, (5-(3-(((5-amino-3H-[1,2,3]triazolo[4,5-b]pyridin-7-yl)oxy)methyl)-4-fluorophenyl)pyridin-2-yl)methanol] | 1 to 100 |  |
| CN1CCN(c2ncc(-c3ccc(F)c(COc4cc(N)nc5[nH]nnc45)c3Cl)cn2)CC1 [Example 348, 7-((2-chloro-6-fluoro-3-(2-(4-methylpiperazin-1-yl)pyrimidin-5-yl)benzyl)oxy)-3H-[1,2,3]triazolo[4,5-b] pyridin-5-amine] | 101 to 999 |  |
| N#Cc1cc(-c2ccc(N3CCNC(=O)C3)nc2)ccc1COc1cc(N)nc2[nH]nnc12 [Example 349, 2-(((5-Amino-3H-[1,2,3]triazolo[4,5-b]pyridin-7-yl)oxy)methyl)-5-(6-(3-oxopiperazin-1-yl)pyridin-3-yl)benzonitrile] | 101 to 999 |  |
| CC1CN(c2ccc(-c3ccc(COc4cc(N)nc5[nH]nnc45)c(C#N)c3)cn2)CC(C)N1 (centres unmarked) [Example 350, 2-(((5-Amino-3H-[1,2,3]triazolo[4,5-b]pyridin-7-yl)oxy)methyl)-5-(6-(3,5-dimethylpiperazin-1-yl)pyridin-3-yl)benzonitrile] | 1 to 100 |  |
| N#Cc1ccc(OC(F)F)cc1COc1cc(N)nc2[nH]nnc12 [Example 351, 2-(((5-amino-3H-[1,2,3]triazolo[4,5-b]pyridin-7-yl)oxy)methyl)-4-(difluoromethoxy)benzonitrile] | 1 to 100 |  |
| N#Cc1ccc(OC2CC2)cc1COc1cc(N)nc2[nH]nnc12 [Example 352, 2-(((5-amino-3H-[1,2,3]triazolo[4,5-b]pyridin-7-yl)oxy)methyl)-4-cyclopropoxybenzonitrile] | 1 to 100 |  |
